{"source": "patent US20090060984A1", "about": "“ANIONIC SURFACTANTS LETHAL TO GRAM-POSITIVE BACTERIA” (priority 2007, published 2009)", "key": {"[1]": {"tested_on": "S. aureus", "conditions": "24 h contact time", "source_text": "(§1) PU formulated at a TDI: PPG mole ratio of 1.5:1 are post treated with water."}, "[2]": {"tested_on": "E. coli", "conditions": "24 h contact time", "source_text": "as §1"}, "[3]": {"tested_on": "Escherichia coli ATCC 11229", "conditions": "for E. coli on sprayed household surfaces: metal plate, wall paper, vinyl tile, 0.06% silver solution", "method": "The antimicrobial activities of the coatings on coupons and slides are tested against both Gram-positive (Staphylococcus aureus ATCC 6538) and Gram-negative (Escherichia coli ATCC 11229) bacteria. The following set of steps are executed over a four day period, in order to evaluate the coatings for antimicrobial activity.\n(1) Three colonies are picked from a Petri dish that contains refrigerator stock of E. coli and S. aureus. Each of the colonies is placed into a separate test tube of 5 mL of TSB (tryptic soy broth); (2) the TSB cultures are incubated in a heated shaker; the culture is grown overnight at 37° C. while shaking at 175 rpm.\n(1) 500 μL (0.5 mL) of FINAL E. coli bacteria are placed onto the center of each sterilized coating (24 hour); the same is done with S. aureus; (2) the coupons/coatings are stored for 24 hours in sealed pan by stacking Petri dishes on top of one another; (3) 200 mL of sterile water is added to the bottom of each pan; each pan is enclosed with clear saran wrap and aluminum foil; the Pyrex pans containing the coatings are incubated at room temperature for 24 hours; all inoculations of the coatings are performed in the same laminar flow hood as where the sterilized slides are placed into sterile Petri dishes; the prepared bacterial suspension (0.5 ml) is directly pipetted onto the coating of the slide; the spreading of the innoculum across the surface of the coating is observed and noted.\n(1) 500 μL (0.5 mL) of FINAL E. coli bacteria is placed onto the center of each sterilized coating (0 hour); the same is done with S. aureus; (2) after bacteria are added to the 0 hour coatings, each Petri dish (containing the coating) is submerged with 25 mL of PBS; this immersion stops the viable bacteria from continuing to grow; (3) 100 μL of fluid is removed from coatings dish and placed in the middle of a previously labeled TSA plate; this is done to both agar plates labeled with −1 concentration; before removing the fluid, the surface of the coupon is scratched with a sterile loop to activate movement of bacteria; (4) “hockey sticks” are sterilized with ethanol and flame, to spread solution thoroughly; (5) the concentration of bacteria is diluted by removing 500 μL of the fluid in the coupon dish and placing it into a test tube with 4.5 mL of PBS; this solution is diluted in duplicate by removing 100 μL of the fluid and spreading into TSA plates labeled −2; (6) sterilized “hockey sticks” are used to spread solution thoroughly; (7) 500 μL of fluid from 1st tube prepared in step 5 is removed and placed into 4.5 mL of PBS; this dilution is mixed and 100 μL is removed in duplicate and placed into two new TSA plates labeled −3; (8) sterilized “hockey sticks” are used to spread these dilutions thoroughly; (9) steps 1-8 are repeated for each of the coupons or slides."}, "[4]": {"conditions": "0.01 weight % Ag in PU composition"}, "[5]": {"conditions": "0.03 weight % Ag in PU composition"}, "[6]": {"conditions": "0.10 weight % Ag in PU composition"}, "[7]": {"conditions": "0.30 weight % Ag in PU composition"}, "[8]": {"conditions": "1.0 weight % Ag in PU composition"}, "[9]": {"conditions": "3.0 weight % Ag in PU composition"}, "[10]": {"conditions": "acetate sprayed with 0.06% w/w AgAOT/isopropanol, 24 h contact time"}, "[11]": {"conditions": "cotton sprayed with 0.06% w/w AgAOT/isopropanol, 24 h contact time"}, "[12]": {"conditions": "linen sprayed with 0.06% w/w AgAOT/isopropanol, 24 h contact time"}, "[13]": {"conditions": "metal plate sprayed with 0.06% Ag+ AgAOT solution, 0 h contact time"}, "[14]": {"conditions": "metal plate sprayed with 0.06% Ag+ AgAOT solution, 24 h contact time"}, "[15]": {"conditions": "polyester sprayed with 0.06% w/w AgAOT/isopropanol, 24 h contact time"}, "[16]": {"conditions": "silk sprayed with 0.06% w/w AgAOT/isopropanol, 0 h contact time"}, "[17]": {"conditions": "silk sprayed with 0.24% w/w AgAOT/isopropanol, 0 h"}, "[18]": {"conditions": "silk sprayed with 0.24% w/w AgAOT/isopropanol, 24 h"}, "[19]": {"conditions": "vinyl tile sprayed with 0.06% Ag+ AgAOT solution, 0 h contact time"}, "[20]": {"conditions": "vinyl tile sprayed with 0.06% Ag+ AgAOT solution, 24 h contact time"}, "[21]": {"conditions": "wall-paper sprayed with 0.06% Ag+ AgAOT solution, 24 h contact time"}}, "note": "Several values for one entry are separate records, joined by “and”; a condition that tells them apart may be missing. Equal entries are not always repeated. Where two headings read alike, the source gives them in different places.", "data": [{"smiles": "CCCCC(CC)COC(=O)CC(C(=O)OCC(CC)CCCC)S(=O)(=O)[O-].[Ag+]", "note": "(stereo not shown) [AgAOT]", "values": [{"measurement": "S. aureus growth on PU composition", "setting": "[1]; [4]", "value": "+"}, {"measurement": "S. aureus growth on PU composition", "setting": "[1]; [5]", "value": "+"}, {"measurement": "S. aureus growth on PU composition", "setting": "[1]; [6]", "value": "+"}, {"measurement": "S. aureus growth on PU composition", "setting": "[1]; [7]", "value": "−"}, {"measurement": "S. aureus growth on PU composition", "setting": "[1]; [8]", "value": "−"}, {"measurement": "S. aureus growth on PU composition", "setting": "[1]; [9]", "value": "−"}, {"measurement": "Silver level providing complete inhibition", "setting": "[1]; PU composition", "value": 0.30, "unit": "% w/w silver"}, {"measurement": "E. coli growth on PU composition", "setting": "[2]; [4]", "value": "+"}, {"measurement": "E. coli growth on PU composition", "setting": "[2]; [5]", "value": "+"}, {"measurement": "E. coli growth on PU composition", "setting": "[2]; [6]", "value": "+"}, {"measurement": "E. coli growth on PU composition", "setting": "[2]; [7]", "value": "−"}, {"measurement": "E. coli growth on PU composition", "setting": "[2]; [8]", "value": "−"}, {"measurement": "E. coli growth on PU composition", "setting": "[2]; [9]", "value": "−"}, {"measurement": "Silver level providing complete inhibition", "setting": "[2]; PU composition", "value": 0.30, "unit": "% w/w silver"}, {"measurement": "E. coli growth on sprayed fabrics", "setting": "[3]; 0.06% Ag AgAOT/isopropanol, 24 h contact time", "value": "With the single exception of silk, complete eradication is obtained for each of the other fabrics"}, {"measurement": "E. coli CFU/mL, Average", "setting": "[3]; acetate sprayed with 0.06% w/w AgAOT/isopropanol, 0 h contact time", "value": "3.08E+05", "unit": "CFU/mL"}, {"measurement": "E. coli CFU/mL, Average", "setting": "[3]; [10]", "value": "0.00E+00", "unit": "CFU/mL"}, {"measurement": "E. coli CFU/mL, Run #1-#4", "setting": "[3]; [10]", "value": "0.00E+00", "unit": "CFU/mL"}, {"measurement": "E. coli CFU/mL, Average", "setting": "[3]; cotton sprayed with 0.06% w/w AgAOT/isopropanol, 0 h contact time", "value": "2.53E+05", "unit": "CFU/mL"}, {"measurement": "E. coli CFU/mL, Average", "setting": "[3]; [11]", "value": "0.00E+00", "unit": "CFU/mL"}, {"measurement": "E. coli CFU/mL, Run #1-#4", "setting": "[3]; [11]", "value": "0.00E+00", "unit": "CFU/mL"}, {"measurement": "E. coli CFU/mL, Average", "setting": "[3]; linen sprayed with 0.06% w/w AgAOT/isopropanol, 0 h contact time", "value": "1.46E+05", "unit": "CFU/mL"}, {"measurement": "E. coli CFU/mL, Average", "setting": "[3]; [12]", "value": "0.00E+00", "unit": "CFU/mL"}, {"measurement": "E. coli CFU/mL, Run #1-#4", "setting": "[3]; [12]", "value": "0.00E+00", "unit": "CFU/mL"}, {"measurement": "E. coli CFU/mL, Avg", "setting": "[3]; [13]", "value": "3.10E+05", "unit": "CFU/mL"}, {"measurement": "E. coli CFU/mL, Run #1-#2", "setting": "[3]; [13]", "value": "3.40E+05 CFU/mL and 2.80E+05 CFU/mL"}, {"measurement": "E. coli CFU/mL, Avg", "setting": "[3]; [14]", "value": "0.00E+00", "unit": "CFU/mL"}, {"measurement": "E. coli CFU/mL, Run #1-#2", "setting": "[3]; [14]", "value": "0.00E+00", "unit": "CFU/mL"}, {"measurement": "E. coli on sprayed household surfaces", "setting": "[3]; 0 h contact time (5-10 minutes)", "value": "does not significantly attenuate E. coli growth"}, {"measurement": "E. coli on sprayed household surfaces", "setting": "[3]; 24 h contact time", "value": "eradicated on each of the samples"}, {"measurement": "E. coli CFU/mL, Average", "setting": "[3]; polyester sprayed with 0.06% w/w AgAOT/isopropanol, 0 h contact time", "value": "9.10E+04", "unit": "CFU/mL"}, {"measurement": "E. coli CFU/mL, Average", "setting": "[3]; [15]", "value": "0.00E+00", "unit": "CFU/mL"}, {"measurement": "E. coli CFU/mL, Run #1-#4", "setting": "[3]; [15]", "value": "0.00E+00", "unit": "CFU/mL"}, {"measurement": "E. coli CFU/mL, Average", "setting": "[3]; rayon sprayed with 0.06% w/w AgAOT/isopropanol, 0 h contact time", "value": "2.88E+05", "unit": "CFU/mL"}, {"measurement": "E. coli CFU/mL, Average", "setting": "[3]; rayon sprayed with 0.06% w/w AgAOT/isopropanol, 24 h contact time", "value": "3.25E+05", "unit": "CFU/mL"}, {"measurement": "E. coli CFU/mL, Average", "setting": "[3]; [16]", "value": "2.55E+05", "unit": "CFU/mL"}, {"measurement": "E. coli CFU/mL, Run #1-#2", "setting": "[3]; [16]", "value": "2.70E+05 CFU/mL and 2.40E+05 CFU/mL"}, {"measurement": "E. coli CFU/mL, Average", "setting": "[3]; silk sprayed with 0.06% w/w AgAOT/isopropanol, 24 h contact time", "value": "2.75E+07", "unit": "CFU/mL"}, {"measurement": "E. coli CFU/mL, Average", "setting": "[3]; [17]", "value": "3.38E+05", "unit": "CFU/mL"}, {"measurement": "E. coli CFU/mL, Run #1-#4", "setting": "[3]; [17]", "value": "3.20E+05 CFU/mL and 3.60E+05 CFU/mL and 3.10E+05 CFU/mL"}, {"measurement": "E. coli CFU/mL, Average", "setting": "[3]; [18]", "value": "0.00E+00", "unit": "CFU/mL"}, {"measurement": "E. coli CFU/mL, Run #1-#4", "setting": "[3]; [18]", "value": "0.00E+00", "unit": "CFU/mL"}, {"measurement": "E. coli CFU/mL, Avg", "setting": "[3]; [19]", "value": "2.60E+05", "unit": "CFU/mL"}, {"measurement": "E. coli CFU/mL, Run #1-#2", "setting": "[3]; [19]", "value": "2.30E+05 CFU/mL and 2.90E+05 CFU/mL"}, {"measurement": "E. coli CFU/mL, Avg", "setting": "[3]; [20]", "value": "0.00E+00", "unit": "CFU/mL"}, {"measurement": "E. coli CFU/mL, Run #1-#2", "setting": "[3]; [20]", "value": "0.00E+00", "unit": "CFU/mL"}, {"measurement": "E. coli CFU/mL, Avg", "setting": "[3]; wall-paper sprayed with 0.06% Ag+ AgAOT solution, 0 h contact time", "value": "1.94E+05", "unit": "CFU/mL"}, {"measurement": "E. coli CFU/mL, Avg", "setting": "[3]; [21]", "value": "0.00E+00", "unit": "CFU/mL"}, {"measurement": "E. coli CFU/mL, Run #1-#2", "setting": "[3]; [21]", "value": "0.00E+00", "unit": "CFU/mL"}]}]}
